Measurements from patent US8492559B2, “Substituted indole compounds” (Gruenenthal GmbH, priority 2009, dated 2013).

Target: T1, B1R receptor of the rat (rB1R) (Rattus norvegicus, UniProt P97583)
T1 construct: expressed in transfected cells; host or cells: CHO K1 cells
T1 sequence (P97583 1-337): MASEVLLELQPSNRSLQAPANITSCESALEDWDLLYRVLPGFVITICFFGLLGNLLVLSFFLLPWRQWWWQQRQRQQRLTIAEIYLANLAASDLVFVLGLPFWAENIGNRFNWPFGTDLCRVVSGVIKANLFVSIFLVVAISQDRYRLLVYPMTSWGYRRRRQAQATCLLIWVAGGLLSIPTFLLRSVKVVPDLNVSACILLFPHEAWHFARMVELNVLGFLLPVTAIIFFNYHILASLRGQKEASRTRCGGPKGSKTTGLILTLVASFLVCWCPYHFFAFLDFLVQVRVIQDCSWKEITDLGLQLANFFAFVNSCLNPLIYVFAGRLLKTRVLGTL
Assay: Functional investigation on the bradykinin 1 receptor (B1R), FLIPR Ca2+ assay, rB1R cells
Format: cell-based
Details: CHO-K1, 10 μM test substance; CHO K1 cells with rat B1R; agonist Des-Arg9 bradykinin; % of maximum achievable inhibition; read-out: B1R antagonism, rat [10 μM] % inhibition
Outline: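 Ca2+ influx is measured as peak Fluo-4 fluorescence in a FLIPR protocol with two substance additions, following Lys-Des-[MUT] bradykinin (0.5 nM) or Des-[MUT] bradykinin (100 nM) challenge. Varying antagonist concentrations give % inhibition relative to maximum achievable and an IC50. Determinations in duplicate or triplicate, repeated independently (N>=2).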

Row | Structure (SMILES) | inhibition at 10 µM [%]
1 | CN(CCC1CCC(c2ccccc2)(N(C)C)CC1)C(=O)CCn1ccc2ccc(N3Cc4cccc(Cl)c4C3=O)cc21 (centres unmarked) [G_CC-127, 3-[6-(4-Chloro-3-oxo-1,2-dihydro-isoindol-2-yl)-1H-indol-1-yl]-N-[2-(4-dimethylamino-4-phenyl-cyclohexyl)-ethyl]-N-methyl-propionamide] | 63
2 | CN1CCN(C2(c3cccc(F)c3)CCN(C(=O)Cn3ccc4ccc(N5Cc6cccc(Cl)c6C5=O)cc43)CC2)CC1 [G_CC-128, 7-Chloro-2-[1-[2-[4-(3-fluorophenyl)-4-(4-methyl-piperazin-1-yl)-piperidin-1-yl]-2-oxo-ethyl]-1H-indol-6-yl]-2,3-dihydro-isoindol-1-one] | 61
3 | COc1cc(C)c(S(=O)(=O)Nc2cccc3ccn(CC(=O)N4CCN(C(=O)c5cccnc5)CC4)c23)c(C)c1 [G_CC-139, 4-Methoxy-2,6-dimethyl-N-[1-[2-oxo-2-[4-(pyridin-3-carbonyl)-piperazin-1-yl]-ethyl]-1H-indol-7-yl]-benzenesulfonic acid amide] | 50

Further lines, results first:

Row | inhibition at 10 µM [%] | Structure (SMILES)
4 | 67 | O=C(CCn1ccc2cccc(N3Cc4cccc(Cl)c4C3=O)c21)NCC1CCN(c2ccncc2)CC1 [G_CC-123, 3-[7-(4-Chloro-3-oxo-1,2-dihydro-isoindol-2-yl)-1H-indol-1-yl]-N-[(1-pyridin-4-yl-piperidin-4-yl)-methyl]-propionamide]
5 | 52 | CN(CCCN1CCN(c2ccncc2)CC1)C(=O)Cn1ccc2ccc(N3Cc4cccc(Cl)c4C3=O)cc21 [G_CC-138, 2-[6-(4-Chloro-3-oxo-1,2-dihydro-isoindol-2-yl)-1H-indol-1-yl]-N-methyl-N-[3-(4-pyridin-4-yl-piperazin-1-yl)-propyl]-acetamide]
